According to patent US7695930B2, “Method for the detection, identification and/or quantification of microoganisms with peptidase activity using phenoxazinone derivatives as enzyme substrates” (Biomerieux, priority 2003, dated 2010):
Where two headings read alike, the source gives them in different places.

What was measured:
Details in all cases: 60 mg/l
[1] = tested on: Candida albicans (NCTC)
Method: (§1) 300 ml of Columbia medium were melted in a waterbath at 100° C. and autoclaved at 121° C. for 15 min. The product was then cooled to 50° C. in a waterbath.
(§2) This medium was separated into 3 flasks of 100 ml, and then, added at 50° C., as substrates, were those of Examples 4 and 6 for which the amino acid is β-alanine (respectively, β-alanine-9-amino-6-carbethoxybenzo[a]phenoxazin-5-one or β-Ala-ACAP and β-alanine-9-amino-6-chlorobenzo[a]phenoxazin-5-one or β-Ala-ACHP), solubilized in DMSO, according to the concentrations indicated in Table 5 below:
(§3) The medium was then poured into Petri dishes.
(§4) Nine microorganism strains derived from the Applicant's collection, suspended in physiological saline, were seeded onto the media prepared in point 14.1 above according to a multipoint inoculation in a proportion of 100 000 cfu/spot. The dishes were incubated at 37° C. for 48 hours. The colonies formed (one colony per strain) were examined visually after incubation for 24 and 48 hours.
(§5) The results are expressed in Table 6 hereinafter according to the rules and the nomenclature stated in paragraph 11.3 and where RP signifies pale pink.

[2] = tested on: Pseudomonas aeruginosa 3
Method: as §1, §2, §3, §4, §5

[3] = tested on: Burkholderia cepacia 1
Method: as §1, §2, §3, §4, §5

[4] = tested on: Burkholderia cepacia 2
Method: as §1, §2, §3, §4, §5

[5] = tested on: Pseudomonas aeruginosa 2
Method: as §1, §2, §3, §4, §5

[6] = tested on: Pseudomonas aeruginosa 1
Method: as §1, §2, §3, §4, §5

[7] = tested on: Enterobacter cloacae (NCTC 11936)
Method: as §1, §2, §3, §4, §5

[8] = tested on: Enteroccus faecalis (NCTC 775)
Method: as §1, §2, §3, §4, §5

[9] = tested on: Escherichia coli (NCTC 10418)
Method: as §1, §2, §3, §4, §5

Substance | growth diameter ([1]; 24 h) | growth diameter ([1]; 48 h) | color of the colony ([2]; 24 h) | growth diameter ([2]; 24 h) | intensity of coloration, scale 0 to 4 ([2]; 24 h) | growth diameter ([2]; 48 h) | intensity of coloration, scale 0 to 4 ([2]; 48 h) | growth diameter ([3]; 24 h) | growth diameter ([3]; 48 h) | growth diameter ([4]; 24 h) | growth diameter ([4]; 48 h) | color of the colony ([5]; 24 h) | growth diameter ([5]; 24 h) | intensity of coloration, scale 0 to 4 ([5]; 24 h) | growth diameter ([5]; 48 h) | intensity of coloration, scale 0 to 4 ([5]; 48 h) | color of the colony ([6]; 24 h) | growth diameter ([6]; 24 h) | intensity of coloration, scale 0 to 4 ([6]; 24 h) | growth diameter ([6]; 48 h) | further results
β-alanine-9-amino-6-carbethoxybenzo[a]phenoxazin-5-one [β-Ala-ACAP] | 2 mm | 2 mm | R | 1 mm | 2 | 2 mm | 3 | 2 mm | 2 mm | 2 mm | 2 mm | R | 3 mm | 2 | 3 mm | 2 | R | 3 mm | 1 | 3 mm | color of the colony ([2]; 48 h): R; color of the colony ([5]; 48 h): R; color of the colony ([6]; 48 h): R; intensity of coloration, scale 0 to 4 ([6]; 48 h): 3; growth diameter ([7]; 24 h): 3 mm; growth diameter ([7]; 48 h): 3 mm; growth diameter ([8]; 24 h): 2 mm; growth diameter ([8]; 48 h): 2 mm; growth diameter ([9]; 24 h): 2 mm; growth diameter ([9]; 48 h): 3 mm
β-alanine-9-amino-6-chlorobenzo[a]phenoxazin-5-one [β-Ala-ACHP] | 2 mm | 2 mm | R | 1 mm | 2 | 2 mm | 2 | 2 mm | 2 mm | 2 mm | 2 mm | R | 2 mm | 2 | 3 mm | 2 | R | 3 mm | 2 | 3 mm | intensity of coloration, scale 0 to 4 ([6]; 48 h): 2; growth diameter ([7]; 24 h): 2 mm; growth diameter ([7]; 48 h): 3 mm; growth diameter ([8]; 24 h): 1 mm; growth diameter ([8]; 48 h): 1 mm; growth diameter ([9]; 24 h): 2 mm; growth diameter ([9]; 48 h): 3 mm
